Test results as given in patent US8642653B2, “Ketone compounds and compositions for cholesterol management and related uses” (Esperion Therapeutics, Inc., priority 2003, dated 2014).
Where two headings read alike, the source gives them in different places.

Tests used:
obese female Zucker rats = test: Daily oral gavage in obese female Zucker rats: serum nonHDL cholesterol, HDL cholesterol, triglycerides, glycemic control indicators, body weight; assay type: in vivo, rat (Zucker fatty Crl:(Zuc)-faBR); conditions: Rattus norvegicus, 100 mg/kg daily oral gavage
Protocol: Ten- to twelve-week old (400-500 grams) female Zucker fatty rats Crl: (Zuc)-faBR were obtained from Charles River Laboratories. Animals were acclimated to the laboratory environment for seven days. During the acclimation and study period, animals were housed by group in shoebox polycarbonate cages on Cellu-Dri bedding. The temperature and humidity in the animals' quarters (68-78° F.; 30-75% RH) were monitored and the airflow in the room was sufficient to provide several exchanges per hour with 100% fresh filtered air. An automatic timing device provided an alternating 12-hour cycle of light and dark. Rats received pelleted Purina Laboratory Rodent Chow® (5001) prior to and during the drug intervention period except for a 6-hour phase prior to blood sampling. Fresh water was supplied ad libitum via an automatic watering system. Compounds were dissolved, suspended by mixing in a dosing vehicle consisting of 1.5% carboxymethylcellulose/0.2% Tween 20 or 20% ethanol and 80% polyethylene glycol-200 [v/v]. Dose volume of vehicle or vehicle plus each compound was set at 0.25% of body weight in order to deliver the appropriate dose. Doses were administered daily by oral gavage, approximately between 8-10 AM. Regarding blood sampling, animals were fasted for 6 hours prior to all blood collections. Prior to and after 7 days of dosing, a 1.0- to 2.0-mL sample of blood was collected by administering O2/CO2 anesthesia and bleeding from the orbital venous plexus. Following 14 days of dosing, blood was collected by cardiac puncture after euthanasia with CO2. All blood samples were processed for separation of serum and stored at −80° C. until analysis. Commercially available kits were used to determine serum triglycerides (Roche Diagnostic Corporation, Kit No. 148899 or Boehringer Mannheim, Kit No. 1488872), total cholesterol (Roche Diagnostic Corporation, Kit No. 450061), non-esterified fatty acids (Wako Chemicals, Kit No. 994-75409) and β-hydroxybutyrate (Wako Chemicals, Kit No. 417-73501 or Sigma Kit. No. 310-0) on a Hitachi 912 Automatic Analyzer (Roche Diagnostic Corporation). In some instances, an in-house cholesterol reagent was used to determine total serum cholesterol levels. Serum lipoprotein cholesterol levels were determined by lipoprotein profile analysis. Lipoprotein profiles were analyzed using gel-filtration chromatography on a Superose 6HR (1×30 cm) column equipped with on-line detection of total cholesterol as described by Kieft et al (Kieft, K. A.; Bocan, T. M.; Krause, B. R. Rapid on-line determination of cholesterol distribution among plasma lipoproteins after high-performance gel filtration chromatography. J. Lipid Res. 1991, 32, 859-866.). The total cholesterol content of each lipoprotein was calculated by multiplying the independent values determined for serum total cholesterol by the percent area of each lipoprotein in the profile. The percent body weight gain and the ratio of liver to body weight is also determined. Selected data are shown as absolute values or as a percent change of the pretreatment values in Tables 8 and 9.
Select compounds (214c, 210c, and 210g) were further evaluated in the Zucker rat by performing a full dose response and measuring additional serum variables including markers for diabetes (Tables 10-12).

[1] = test system: Lipid Synthesis in Primary Rat Hepatocytes; test: Inhibition of lipid synthesis ([1-14C]-acetate incorporation) in primary cultures of rat hepatocytes; assay type: cell-based, rat (Sprague-Dawley); conditions: Hepatocyte, 4 h, 4 h incubation with [1-14C]-acetate, 0-300 μM compound, Table 7, ranges where confidence of estimate is insufficient to assign a value
Protocol: Compounds were tested for inhibition of lipid synthesis in primary cultures of rat hepatocytes. […] Sprague-Dawley rats were anesthetized with intraperitoneal injection of sodium pentobarbital (80 mg/kg). Rat hepatocytes were isolated essentially as described by the method of Seglen (Seglen, P. O. Hepatocyte suspensions and cultures as tools in experimental carcinogenesis. J. Toxicol. Environ. Health 1979, 5, 551-560). Hepatocytes were suspended in Dulbecco's Modified Eagles Medium containing 25 mM D-glucose, 14 mM HEPES, 5 mM L-glutamine, 5 mM leucine, 5 mM alanine, 10 mM lactate, 1 mM pyruvate, 0.2% bovine serum albumin, 17.4 mM non-essential amino acids, 20% fetal bovine serum, 100 nM insulin and 20 μg/mL gentamycin) and plated at a density of 1.5×10^5 cells/cm^2 on collagen-coated 96-well plates. Four hours after plating, media was replaced with the same media without serum. […] Lipid synthesis incubation conditions were initially assessed to ensure the linearity of [1-^14C]-acetate incorporation into hepatocyte lipids for up to 4 hours. Hepatocyte lipid synthesis inhibitory activity was assessed during incubations in the presence of 0.25 μCi [1-^14C]-acetate/well (final radiospecific activity in assay is 1 Ci/mol) and 0, 1, 3, 10, 30, 100 or 300 μM of compounds for 4 hours. […] Lipid radioactivity was assessed by scintillation spectroscopy in a Packard TopCount NXT.

[2] = 168 h, 1 wk, Table 9, read-out: HDL-Cholesterol, Percent Change from Pre-Treatment, 1 wk

## CC(C)(CCCCCC(=O)CCCCCC(C)(C)C(=O)O)C(=O)O
Obese female Zucker rats; [2]
  change in vivo at 100 mg/kg: 70%

## O=C(CCCCC1(C(=O)O)CCCC1)CCCCC1(C(=O)O)CCCC1 [Compound 107g, 1-[9-(1-Carboxycyclopentyl)-5-oxononyl]-1-cyclopentanecarboxylic acid]
other
  melting point: 99 to 103 °C

## O=C(CCCCCC1(C(=O)O)CC1)CCCCCC1(C(=O)O)CC1 [Compound 107l, 1-[11-(1-Carboxycyclopropyl)-6-oxoundecyl]-1-cyclopropanecarboxylic acid]
other
  melting point: 122 to 123 °C

## O=C(CCCCCC1(C(=O)O)CCCC1)CCCCCC1(C(=O)O)CCCC1 [Compound 107m, 1-[11-(1-Carboxycyclopentyl)-6-oxoundecyl]-1-cyclopentanecarboxylic acid]
other
  melting point: 78 to 85 °C

## CC(C)(CCCCCCCC(=O)CCCCCCCC(C)(C)C(=O)O)C(=O)O [Compound 107n, 10-Oxo-2,2,18,18-tetramethyl-nonadecanedioic acid]
other
  melting point: 74 to 77 °C

## CC(C)(CCCCCCCC(=O)CCCCCCCC(C)(C)C(=O)O)C(=O)O [drawing 538]
[1]
  IC50: 5 µM

## CC(C)(CCCCCCCC(=O)CCCCCCCC(C)(C)C(=O)O)C(=O)O [drawing 559]
Obese female Zucker rats; [2]
  change in vivo at 100 mg/kg: 44%
Obese female Zucker rats; 168 h, 1 wk, Table 9, read-out: NonHDL-Cholesterol, Percent Change from Pre-Treatment, 1 wk
  change in vivo at 100 mg/kg: -80%
Obese female Zucker rats; 168 h, 1 wk, Table 9, read-out: TG, Percent Change from Pre-Treatment, 1 wk
  change in vivo at 100 mg/kg: -85%
Obese female Zucker rats; 336 h, 2 wk, Table 9, read-out: HDL-Cholesterol, Percent Change from Pre-Treatment, 2 wk
  change in vivo at 100 mg/kg: 86%
Obese female Zucker rats; 336 h, 2 wk, Table 9, read-out: NonHDL-Cholesterol, Percent Change from Pre-Treatment, 2 wk
  change in vivo at 100 mg/kg: -46%
Obese female Zucker rats; 336 h, 2 wk, Table 9, read-out: TG, Percent Change from Pre-Treatment, 2 wk
  change in vivo at 100 mg/kg: -63%
